Source: patent EP0026867A1, “Peptidylphosphonic acids, their preparation and use, and pharmaceutical preparations containing them” (F. HOFFMANN-LA ROCHE & CO. Aktiengesellschaft, priority 1979, dated 1981)
Converted amounts (≈) assume the structure as drawn.

How the values were obtained:
Assay in all cases: in vitro antibacterial test (M.I.C.)
Assay type in all cases: cell-based
S. albus = conditions: Staphylococcus albus
Description: (§1) Die folgende Tabelle gibt die Resultate von in vitro Versuchen unter Verwendung von (1R)-1-(L-Pyroglutamyl-L-norvalyl-L-norvalylamirio)-ethylphosphonsäure gegen einige repräsentative pathogene Mikroorganismen wieder.

S. marcescens = conditions: Serratia marcescens
Description: as §1

S. faecalis = conditions: Enterococcus faecalis
Description: as §1

E. coli = conditions: Escherichia coli
Description: as §1

Klebsiella spp. = system: Klebsiella spp.
Description: as §1

Salmonella spp. = system: Salmonella spp.
Description: as §1

S. pneumoniae = conditions: Streptococcus pneumoniae
Description: as §1

S. pyogenes = conditions: Streptococcus pyogenes
Description: as §1

Shigella spp. = system: Shigella spp.
Description: as §1

H. influenzae = conditions: Haemophilus influenzae
Description: as §1

In the case of CCC[C@H](NC(=O)[C@@H]1CCC(=O)N1)C(=O)N[C@@H](CCC)C(=O)N[C@@H](C)P(=O)(O)O [Beispiel 1, (1R)-1-(L-Pyroglutamyl-L-norvalyl-L-norvalylamino)-ethylphosphonsäure], the MIC (S. albus) is reported as 16 mg/L (≈ 36.8 µM), the MIC (S. marcescens) is reported as 30 mg/L (≈ 69.1 µM) and the MIC (S. faecalis) is reported as 0.05 mg/L (≈ 0.115 µM). The MIC (E. coli) was 0.25 mg/L (≈ 0.575 µM), the MIC (Klebsiella spp.) was 16 mg/L (≈ 36.8 µM) and the MIC (Salmonella spp.) was 20 mg/L (≈ 46 µM). It also gave an MIC (S. pneumoniae) of 2.4 mg/L (≈ 5.52 µM), an MIC (S. pyogenes) of 16 mg/L (≈ 36.8 µM) and an MIC (Shigella spp.) of 1.1 mg/L (≈ 2.53 µM). For the same compound, the MIC (H. influenzae) was 0.2 mg/L (≈ 0.46 µM).
